What was measured:
Experiment in all cases: Post-emergence efficacy, glasshouse, evaluated after 13 days
Format in all cases: in vivo
[1] = test system: Amaranthus palmeri (AMAPA); details: post-emergence application, 500 g/Ha, evaluated after 13 days; for pest or weed control at 500 g/ha: Amaranthus palmeri, 312 h, read-out: Control of weed species AMAPA (100=total damage to plant; 0=no damage to plant)
Description: (§1) Seeds of a variety of test species were sown in standard soil in pots. After cultivation for 14 days (post-emergence) under controlled conditions in a glasshouse (at 24/16° C., day/night; 14 hours light; 65% humidity), the plants were sprayed with an aqueous spray solution derived from the dissolution of the technical active ingredient formula (I) in a small amount of acetone and a special solvent and emulsifier mixture referred to as IF50 (11.12% Emulsogen EL360 TM+44.44% N-methylpyrrolidone+44.44% Dowanol DPM glycol ether), to create a 50 g/l solution which was then diluted to required concentration using 0.25% or 1% Empicol ESC70 (Sodium lauryl ether sulphate)+1% ammonium sulphate as diluent.
(§2) The test plants were then grown in a glasshouse under controlled conditions (at 24/16° C., day/night; 14 hours light; 65% humidity) and watered twice daily. After 13 days the test was evaluated (100=total damage to plant; 0=no damage to plant).
(§3) Ipomoea hederacea (IPOHE), Euphorbia heterophylla (EPHHL), Chenopodium album (CHEAL), Amaranthus palmeri (AMAPA), Lolium perenne (LOLPE), Digitaria sanguinalis (DIGSA), Eleusine indica (ELEIN), Echinochloa crus-galli (ECHCG), Setaria faberi (SETFA)

[2] = test system: Chenopodium album (CHEAL); details: post-emergence application, 500 g/Ha, evaluated after 13 days; for pest or weed control at 500 g/ha: Chenopodium album, 312 h, read-out: Control of weed species CHEAL (100=total damage to plant; 0=no damage to plant)
Description: as §1, §2, §3

[3] = test system: Digitaria sanguinalis (DIGSA); details: post-emergence application, 500 g/Ha, evaluated after 13 days; for pest or weed control at 500 g/ha: Digitaria sanguinalis, 312 h, read-out: Control of weed species DIGSA (100=total damage to plant; 0=no damage to plant)
Description: as §1, §2, §3

[4] = test system: Echinochloa crus-galli (ECHCG); details: post-emergence application, 500 g/Ha, evaluated after 13 days; for pest or weed control at 500 g/ha: Echinochloa crus-galli, 312 h, read-out: Control of weed species ECHCG (100=total damage to plant; 0=no damage to plant)
Description: as §1, §2, §3

[5] = test system: Eleusine indica (ELEIN); details: post-emergence application, 500 g/Ha, evaluated after 13 days; for pest or weed control at 500 g/ha: Eleusine indica, 312 h, read-out: Control of weed species ELEIN (100=total damage to plant; 0=no damage to plant)
Description: as §1, §2, §3

[6] = test system: Euphorbia heterophylla (EPHHL); details: post-emergence application, 500 g/Ha, evaluated after 13 days; for pest or weed control at 500 g/ha: Euphorbia heterophylla, 312 h, read-out: Control of weed species EPHHL (100=total damage to plant; 0=no damage to plant)
Description: as §1, §2, §3

[7] = test system: Ipomoea hederacea (IPOHE); details: post-emergence application, 500 g/Ha, evaluated after 13 days; for pest or weed control at 500 g/ha: Ipomoea hederacea, 312 h, read-out: Control of weed species IPOHE (100=total damage to plant; 0=no damage to plant)
Description: as §1, §2, §3

[8] = test system: Lolium perenne (LOLPE); details: post-emergence application, 500 g/Ha, evaluated after 13 days; for pest or weed control at 500 g/ha: Lolium perenne, 312 h, read-out: Control of weed species LOLPE (100=total damage to plant; 0=no damage to plant)
Description: as §1, §2, §3

[9] = test system: Setaria faberi (SETFA); details: post-emergence application, 500 g/Ha, evaluated after 13 days; for pest or weed control at 500 g/ha: Setaria faberi, 312 h, read-out: Control of weed species SETFA (100=total damage to plant; 0=no damage to plant)
Description: as §1, §2, §3

Compound	pest or weed control at 500 g/ha [1] [%]	pest or weed control at 500 g/ha [2] [%]	pest or weed control at 500 g/ha [3] [%]	pest or weed control at 500 g/ha [4] [%]	pest or weed control at 500 g/ha [5] [%]	pest or weed control at 500 g/ha [6] [%]	pest or weed control at 500 g/ha [7] [%]	pest or weed control at 500 g/ha [8] [%]	pest or weed control at 500 g/ha [9] [%]	Control of weed species AMAPA (100=total damage to plant; 0=no damage to plant) [1]	Control of weed species CHEAL (100=total damage to plant; 0=no damage to plant) [2]	Control of weed species DIGSA (100=total damage to plant; 0=no damage to plant) [3]	Control of weed species ECHCG (100=total damage to plant; 0=no damage to plant) [4]	Control of weed species ELEIN (100=total damage to plant; 0=no damage to plant) [5]	Control of weed species EPHHL (100=total damage to plant; 0=no damage to plant) [6]	Control of weed species IPOHE (100=total damage to plant; 0=no damage to plant) [7]	Control of weed species LOLPE (100=total damage to plant; 0=no damage to plant) [8]	Control of weed species SETFA (100=total damage to plant; 0=no damage to plant) [9]
COC(=O)CC[n+]1ccc(C(=O)N(C)C)cn1 [Compound A2]	10	10	50	30	10	50	20	20	30	–	–	–	–	–	–	–	–	–
CN(C)C(=O)c1cc[n+](CCCS(=O)(=O)O)nc1 [Compound A3]	90	70	20	20	10	90	20	10	20	–	–	–	–	–	–	–	–	–
CC(C)NC(=O)c1cc[n+](CCS(=O)(=O)O)nc1 [Compound A5]	90	70	50	60	40	30	60	50	40	–	–	–	–	–	–	–	–	–
CC(C)NC(=O)c1cc[n+](CCC(=O)[O-])nc1 [Compound A6]	100	100	90	50	70	50	60	90	90	–	–	–	–	–	–	–	–	–
O=C(Nc1ccccc1)c1cc[n+](CCS(=O)(=O)[O-])nc1 [Compound A7]	100	90	20	20	40	60	10	20	30	–	–	–	–	–	–	–	–	–
CN(C(=O)c1cc[n+](CCS(=O)(=O)O)nc1)c1ccccc1 [Compound A8]	100	90	20	10	40	80	30	0	20	–	–	–	–	–	–	–	–	–
CN(C)C(=O)c1cc[n+](CCC(=O)O)nc1 [Compound A10]	100	100	90	70	80	100	60	10	90	–	–	–	–	–	–	–	–	–
CNC(=O)c1cc[n+](CCCS(=O)(=O)[O-])nc1 [Compound A11]	40	80	70	70	10	70	30	30	20	–	–	–	–	–	–	–	–	–
CNC(=O)c1cc[n+](CC[C@H](N)C(=O)O)nc1.O=C(O)C(F)(F)F.O=C([O-])C(F)(F)F [Compound A12]	–	–	–	–	–	–	–	–	–	90	60	90	80	60	70	40	40	60
CC(C)(C)NC(=O)c1cc[n+](CCS(=O)(=O)O)nc1 [Compound A13]	100	100	80	60	70	70	60	60	80	–	–	–	–	–	–	–	–	–
CC(C)N(C(=O)c1cc[n+](CCS(=O)(=O)O)nc1)C(C)C [Compound A14]	100	70	30	10	10	50	30	0	10	–	–	–	–	–	–	–	–	–
CC(C)(C)NC(=O)c1cc[n+](CCC(=O)O)nc1 [Compound A15]	100	100	90	90	100	90	30	70	100	–	–	–	–	–	–	–	–	–
C#CCNC(=O)c1cc[n+](CCS(=O)(=O)[O-])nc1 [Compound A16]	100	90	70	90	90	80	80	60	70	–	–	–	–	–	–	–	–	–
C#CCNC(=O)c1cc[n+](CCC(=O)O)nc1 [Compound A17]	100	100	100	90	100	90	100	70	90	–	–	–	–	–	–	–	–	–
C=CCNC(=O)c1cc[n+](CCS(=O)(=O)[O-])nc1 [Compound A18]	100	90	80	90	90	70	70	70	50	–	–	–	–	–	–	–	–	–
C=CCNC(=O)c1cc[n+](CCC(=O)O)nc1 [Compound A19]	100	90	100	80	90	90	70	80	80	–	–	–	–	–	–	–	–	–
O=C(NCc1ccccc1)c1cc[n+](CCS(=O)(=O)[O-])nc1 [Compound A20]	100	100	60	60	80	80	50	30	90	–	–	–	–	–	–	–	–	–
O=C(O)CC[n+]1ccc(C(=O)NCc2ccccc2)cn1 [Compound A21]	90	90	70	90	90	90	60	40	60	–	–	–	–	–	–	–	–	–

Reference: patent US20210403435A1, “HERBICIDAL COMPOUNDS” (SYNGENTA CROP PROTECTION AG, priority 2018, published 2021)
